Reference: US20200368371A1, “DYE-PROTEIN COMPLEX FOR NIR II AND PHOTOACOUSTIC IMAGING” (The Board of Trustees of the Leland Stanford Junior …, priority 2019, published 2020)

Experiments:
[1] = all light conditions; cited from earlier work
C57BL/6 mice = experiment: In vivo NIR-II imaging of lymphatic system
Procedure: A gentle massage was performed on the injection site for faster diffusion into the lymphatic system.
Before imaging, all mice were anesthetized in a rodent anesthesia machine with 2 L/min O^2 gas mixed with 3% Soflurane. C57BL/6 mice were used for the vascular and lymphatic system NIR-II imaging. […] A gentle massage was performed at the injection site to increase the speed of diffusion into the lymphatic system. […] All groups within the study contained n=3 mice.
All NIR-II images were collected on a two-dimensional InGaAs array NIR-II system (Princeton Instruments). The excitation was provided by an 808 nm diode laser through an optical fiber and collimator. Fluorescence emission was collected with 1000 nm or more than 1000 nm long-pass filters (Thorlabs). A lens set was used to obtain tunable magnifications ranging from 1× (whole body) to 2.5× (high magnification) by changing the relative position of two NIR achromats (75 mm and 200 mm, Thorlabs). Image J software were used for analyzing the images.
The fluorescence measurement was performed to quantify NIR-II fluorescence signal intensity through the Image J software (National Institutes of Health, Bethesda, Md.). The line graphs and Gaussian-fitted FWHM were analysis by origin 8.5 (OriginLab Corporation, Northampton, Mass.).

[2] = Absorbance spectra in deionized water; format: physicochemical; conditions: DI water
Text: Absorbance spectra of IR-820 and complexes were taken on an ultraviolet-visible-NIR Cary 60 spectrometer (Agilent Technologies) with background correction.

[3] = Fluorescence intensity at different concentrations of IR-820 in deionized water and PBS; format: physicochemical
Procedure: IR-820 was first dissolved in deionized water, and then added to deionized water or PBS to determine the optimal concentration. […] 10 μM was determined as the concentration for other studies. […] Different HSA: IR-820 ratios were prepared while keeping IR-820 at a constant 10 μM to determine the approximate binding stoichiometry.

[4] = prone position, subcutaneous footpad injection

## CC1(C)C(=CC=C2CCCC(C=CC3=[N+](CCCCS(=O)(=O)[O-])c4ccc5ccccc5c4C3(C)C)=C2Cl)N(CCCCS(=O)(=O)[O-])c2ccc3ccccc3c21.[Na+] [IR-820]
[1]
  stability in aqueous solution: greater stability than ICG
C57BL/6 mice; left side, subcutaneous injection
  identification of the inguinal lymph node: failed
C57BL/6 mice; [4]
  FWHM of lymphatic vessels: unmeasurable
  SBR of lymphatic vessels: 1.33
[2]
  absorbance strong peak: 690 nm
  absorbance weak shoulder: 815 nm
[3]
  behaviour in PBS: poor solubility or severe quenching
